Source: US6528525B1, “Amidocarboxylic acid derivatives” (Sankyo Company, Limited, priority 1998, dated 2003)

Tested on: hyperglycemic male KK mice
Test: Action in depressing blood glucose (Method 1)
Type: in vivo
Conditions: compound admixed with powder feed at 0.01% (ca. 10 mg/kg/day) for three days, plasma glucose vs control group; for inhibition in vivo at 10 mg/kg/day: Mus musculus, po, 72 h, read-out: Rate of hypoglycemic activity (%) (blood glucose depression rate)
Method: Action in Depressing Blood Glucose (Method 1)
Each compound, admixed with powder feed F-2 (Funabashi Farm) was administered to hyperglycemic male KK mice each having a body weight of 40 g or more at a rate of 0.01% (ca. 10 mg/kg/day) for three days. Meanwhile, mice of a control group were fed with the powder feed only. Then, a blood sample was collected from the caudal vein of each mouse under no anesthesia and centrifuged. The blood glucose in the plasma thus obtained was determined using Glucoloader F (Product of A & T Co., Ltd.).
The blood glucose depression rate were estimated from the following equation:
Blood glucose depression rate (%)=[(Blood glucose in Control group−Blood glucose in administered group)/Blood glucose in Control group]×100

SMILES | inhibition in vivo at 10 mg/kg/day [%] | Rate of hypoglycemic activity (%) (blood glucose depression rate)
CCCCC(Cc1ccc(OCCNC(=O)c2ccc(OC)nc2)cc1)C(=O)O (stereo not drawn) [Example 52, 2-Butyl-3-[4-[2-(2-methoxypyridine-5-carbonylamino)ethoxy]phenyl]propionic acid] | 20 | 
CCCCC(Cc1ccc(OCCNC(=O)c2ccc(N(CC)CC)cc2)cc1)C(=O)O (stereo not drawn) [Example 62, 2-Butyl-3-[4-[2-(4-N,N-dietylaminobenzoylamino)ethoxy]phenyl]propionic acid] |  | 16
CCCCC(Cc1ccc(OCCCNC(=O)c2ccc(-c3ccccn3)cc2)cc1)C(=O)O (stereo not drawn) [Example 70, 2-Butyl-3-[4-[3-(4-pyridine-2-ylbenzoylamino)propoxy]phenyl]propionic acid] | 23 | 
CCCC(Cc1ccc(OCCNC(=O)c2ccc(-c3ccccn3)cc2)cc1)C(=O)O (stereo not drawn) [Example 74, 2-Propyl-3-[4-[2-(4-pyridine-2-ylbenzoylamino)ethoxy]phenyl]propionic acid] | 60 | 
O=C(NCCOc1ccc(CC(Oc2ccccc2)C(=O)O)cc1)c1ccc(-c2ccccc2)cc1 (stereo not drawn) [Example 76, 3-[4-[2-(Biphenyl-4-carbonylamino)ethoxy]phenyl]-2-phenoxypropionic acid] | 50 | 
O=C(NCCOc1ccc(CC(Oc2ccccc2)C(=O)O)cc1)c1ccc(-c2ccc(F)cc2)cc1 (stereo not drawn) [Example 78, 3-[4-[2-(4′-Fluorobiphenyl-4-carbonylamino)ethoxy]phenyl]-2-phenoxypropionic acid] | 53 | 
O=C(NCCOc1ccc(CC(Oc2ccccc2)C(=O)O)cc1)c1ccc(-c2ccc(Cl)cc2)cc1 (stereo not drawn) [Example 80, 3-[4-[2-(4′-Chlorobiphenyl-4-carbonylamino)ethoxy]phenyl]-2-phenoxypropionic acid] | 50 | 
O=C(NCCOc1ccc(CC(Oc2ccccc2)C(=O)O)cc1)c1ccc(-c2ccc(C(F)(F)F)cc2)cc1 (stereo not drawn) [Example 82, 3-[4-[2-(4′-Trifluoromethylbiphenyl-4-carbonylamino)ethoxy]phenyl]-2-phenoxypropionic acid] | 32 | 
CC(C)c1ccc(OC(Cc2ccc(OCCNC(=O)c3ccc(-c4ccccc4)nc3)cc2)C(=O)O)cc1 (stereo not drawn) [Example 97, 2-(4-Isopropylphenoxy)-3-[4-[2-(2-phenylpyridine-5-carbonylamino)ethoxy]phenyl]propionic acid] | 66 | 
COc1ccc(-c2ccc(C(=O)NCCOc3ccc(CC(Oc4ccc(C(C)C)cc4)C(=O)O)cc3)cn2)cc1 (stereo not drawn) [Example 99, 2-(4-Isopropylphenoxy)-3-[4-[2-[2-(4-methoxyphenyl)pyridine-5-carbonylamino]ethoxy]phenyl]propionic acid] | 57 | 
CC(C)c1ccc(OC(Cc2ccc(OCCNC(=O)c3ccc(-c4ccc(F)cc4)nc3)cc2)C(=O)O)cc1 (stereo not drawn) [Example 101, 3-[4-[2-[2-(4-Fluorophenyl)pyridine-5-carbonylamino]ethoxy]phenyl]-2-(4-isopropylphenoxy)propionic acid] | 51 | 
CC(C)c1ccc(OC(Cc2ccc(OCCNC(=O)c3ccc(OCC(F)(F)C(F)F)nc3)cc2)C(=O)O)cc1 (stereo not drawn) [Example 103, Sodium 3-[4-[2-[2-(2,2,3,3-tetrafluoropropoxy)pyridine-5-carbonylamino]ethoxy]phenyl]-2-(4-isopropylphenoxy)propionate] | 48 | 
CC(C)c1ccc(O[C@@H](Cc2ccc(OCCNC(=O)c3ccc(-c4ccccn4)cc3)cc2)C(=O)O)cc1 [Example 104, (S)-2-(4-Isopropylphenoxy)-3-[4-[2-(4-pyridine-2-ylbenzoylamino)ethoxy]phenyl]propionic acid] | 73 | 
CC(C)c1ccc(OC(Cc2ccc(OCCNC(=O)c3ccc(-c4ccc(C(F)(F)F)cn4)cc3)cc2)C(=O)O)cc1 (stereo not drawn) [Example 107, 2-(4-isopropylphenoxy)-3-[4-[2-[4-(3-trifluoromethylpyridine-6-yl)benzoylamino]ethoxy]phenyl]propionic acid] | 38 | 
CC(C)c1ccc(OC(Cc2ccc(OCCNC(=O)c3ccc(-c4ccc([N+](=O)[O-])cn4)cc3)cc2)C(=O)O)cc1 (stereo not drawn) [Example 109, 2-(4-Isopropylphenoxy)-3-[4-[2-[4-(3-nitropyridine-6-yl)benzoylamino]ethoxy]phenyl]propionic acid] | 38 | 
COc1ccc(-c2ccc(C(=O)NCCOc3ccc(CC(Oc4ccc(C(C)C)cc4)C(=O)O)cc3)cc2)nc1 (stereo not drawn) [Example 111, 2-(4-Isopropylphenoxy)-3-[4-[2-[4-(3-methoxypyridine-6-yl)-benzoylamino]ethoxy]phenyl]propionic acid] | 70 | 
CC(C)c1ccc(OC(Cc2ccc(OCCNC(=O)c3ccc(-c4ccc(N(C)C)cn4)cc3)cc2)C(=O)O)cc1 (stereo not drawn) [Example 113, 3-[4-[2-[4-(3-Dimethylaminopyridine-6-yl)benzoylamino]ethoxy]-phenyl]-2-(4-isopropylphenoxy)propionic acid] | 64 | 
Cc1ccc(OC(Cc2ccc(OCCNC(=O)c3ccc(-c4ccccn4)cc3)cc2)C(=O)O)cc1 (stereo not drawn) [Example 115, 2-(4-Methylphenoxy)-3-[4-[2-(4-pyridine-2-ylbenzoylamino)ethoxy]phenyl]propionic acid] | 66 | 
CC(C)(C)c1ccc(OC(Cc2ccc(OCCNC(=O)c3ccc(-c4ccccn4)cc3)cc2)C(=O)O)cc1 (stereo not drawn) [Example 117, 2-(4-t-Butylphenoxy)-3-[4-[2-(4-pyridine-2-ylbenzoylamino)ethoxy]phenyl]propionic acid] | 70 | 
O=C(NCCOc1ccc(CC(Oc2ccc(F)cc2)C(=O)O)cc1)c1ccc(-c2ccccn2)cc1 (stereo not drawn) [Example 119, 2-(4-Fluorophenoxy)-3-[4-[2-(4-pyridine-2-ylbenzoylamino)ethoxy]phenyl]propionic acid] | 49 | 
O=C(NCCOc1ccc(CC(Oc2ccc(Cl)cc2)C(=O)O)cc1)c1ccc(-c2ccccn2)cc1 (stereo not drawn) [Example 121, 2-(4-Chlorophenoxy)-3-[4-[2-(4-pyridine-2-ylbenzoylamino)ethoxy]phenyl]propionic acid] | 60 | 
O=C(NCCOc1ccc(CC(Oc2ccc(C(F)(F)F)cc2)C(=O)O)cc1)c1ccc(-c2ccccn2)cc1 (stereo not drawn) [Example 123, 3-[4-[2-(4-Pyridine-2-ylbenzoylamino)ethoxy]phenyl]-2-(4-trifluoromethylphenoxy)propionic acid] | 43 | 
COc1ccc(OC(Cc2ccc(OCCNC(=O)c3ccc(-c4ccccn4)cc3)cc2)C(=O)O)cc1 (stereo not drawn) [Example 125, 2-(4-Methoxyphenoxy)-3-[4-[2-(4-pyridine-2-ylbenzoylamino)ethoxy]phenyl]propionic acid] | 54 | 
O=C(NCCOc1ccc(CC(Oc2ccc(OC(F)(F)F)cc2)C(=O)O)cc1)c1ccc(-c2ccccn2)cc1 (stereo not drawn) [Example 127, 3-[4-[2-(4-Pyridine-2-ylbenzoylamino)ethoxy]phenyl]-2-(4-trifluoromethoxyphenoxy)propionic acid] | 56 | 
O=C(NCCOc1ccc(CC(Oc2cccc(F)c2)C(=O)O)cc1)c1ccc(-c2ccccn2)cc1 (stereo not drawn) [Example 137, 2-(3-Fluorophenoxy)-3-[4-[2-(4-pyridine-2-ylbenzoylamino)ethoxy]phenyl]propionic acid] | 49 | 
O=C(NCCOc1ccc(CC(Oc2cc(F)cc(F)c2)C(=O)O)cc1)c1ccc(-c2ccccn2)cc1 (stereo not drawn) [Example 139, 2-(3,5-Difluorophenoxy)-3-[4-[2-(4-pyridine-2-ylbenzoylamino)ethoxy]phenyl]propionic acid] | 23 | 
O=C(NCCOc1ccc(CC(Oc2ccc(F)c(F)c2)C(=O)O)cc1)c1ccc(-c2ccccn2)cc1 (stereo not drawn) [Example 141, 2-(3,4-Difluorophenoxy)-3-[4-[2-(4-pyridine-2-ylbenzoylamino)ethoxy]phenyl]propionic acid] | 27 | 
O=C(NCCOc1ccc(CC(Oc2cc(F)c(F)c(F)c2)C(=O)O)cc1)c1ccc(-c2ccccn2)cc1 (stereo not drawn) [Example 143, 2-(3,4,5-Trifluorophenoxy)-3-[4-[2-(4-pyridine-2-ylbenzoylamino)ethoxy]phenyl]propionic acid] | 43 | 
O=C(NCCOc1ccc(CC(Oc2c(F)c(F)c(F)c(F)c2F)C(=O)O)cc1)c1ccc(-c2ccccn2)cc1 (stereo not drawn) [Example 145, 2-Pentafluorophenoxy-3-[4-[2-(4-pyridine-2-ylbenzoylamino)ethoxy]phenyl]propionic acid] |  | 28
COC(=O)C(Cc1ccc(OCCNC(=O)c2ccc(-c3ccccn3)cc2)cc1)Sc1ccccc1 (stereo not drawn) [Example 152, Methyl 2-phenylthio-3-[4-[2-(4-pyridine-2-ylbenzoylamino)ethoxy]phenyl]propionate] | 58 | 
